Reference: PubChem BioAssay AID1963421 (Molecular Pharmacology Branch, DTP, NCI, 2024)

System: 519858-162-T-J1-PDC complex spheroid growth, % test/control
Assay: Anticancer human tumor 519858-162-T-J1-PDC patient-derived colon adenocarcinoma cell line growth inhibition [Asc]
Details: for IC50: curve of first compound; for viability, T/C: stronger effect = lower value
Protocol: Multicellular complex tumor spheroid response to apoptosis pathway targeting inhibitors Alrizomadlin, Pelcitoclax, and Dasminapant in combination with a variety of drugs and investigational agents in selected tumor cell lines
The MDM2 inhibitor alrizomadlin, the Bcl-2/Bcl-xL inhibitor pelcitoclax, and the IAPs inhibitor dasminapant were evaluated both individually and in combination with standard of care and investigational anticancer small molecules within a complex spheroid model of solid tumors. . Complex spheroids include a stromal component modeled by human endothelial cells (HUVEC) and fibroblasts modeled by human mesenchymal stem cells (MSCs). The concentration ranges selected for each drug and investigational agent were based upon clinically achievable concentrations if the clinical Cmax of the agent was known.
Compounds. The drugs and investigational agents: alrizomadlin (APG-115; NSC831270), pelcitoclax (APG-1252; NSC835773), dasminapant (APG-1387;NSC834197), TAK-243 (NSC785004), copanlisib (NSC809693), olaparib (NSC753686), talazoparib (NSC767125), cobimetinib (NSC 768068), eltanexor (KPT-8602, NSC 794443), abemaciclib (NSC 768073), sotorasib (NSC818433), adagrasib (NSC 831453), MRTX-1133 (NSC 836407), Iadademestat (ORY1001, NSC 806812), and RMC-4630 (NSC839698), were obtained from the NCI Developmental Therapeutics Program Chemical Repository. The FDA-approved anticancer drug set is available from the Developmental Therapeutics Program at https://dtp.cancer.gov/organization/dscb/obtaining/available plates.htm. […] The stock solutions were prepared in dimethyl sulfoxide (DMSO, Sigma-Aldrich, St. Louis, MO, cat. D2650) at 800-fold the tested concentration and stored at -70 degrees C prior to their use. All drugs and investigational agents were tested over a range starting from a high concentration at or near the clinical Cmax and decreasing in half-log increments. If the clinical Cmax for an agent had not been determined, the highest concentration tested was 10 microM.
The patient-derived cancer (PDC) cell lines include five colon adenocarcinomas: 186277-243-T-J2-PDC, 616215-338-R-J1-PDC, 439559-082-T-J2-PDC, 463943-066-T-J2-PDC, and 519858-162-T-J1-PDC; three pancreatic carcinomas: 323965-272-R-J2-PDC, 521955-158-R6-J3-PDC, and 521955-158-R2-J5-PDC; two uterine sarcomas: 327498-152-R-J2-PDC and 993429-296-R-J1-PDC; two rhabdomyosarcomas: 755483-174-R-J1-PDC and 772245-204-R-J1-PDC; two soft tissue sarcomas: 126254-015-R-J1-PDC and 494315-158-R-J1-PDC; two malignant fibrous histiocytomas: 317291-083-R-J1-PDC and 596521-263-R-J1-PDC; two breast carcinomas: 171881-019-R-J1-PDC and 885512-296-R-J2-PDC; and one ovarian carcinoma: 6556581-035-R-J-PDC were obtained from the NCI PDMR, (https://pdmr.cancer.gov). The established cell lines HSSY-2 synovial sarcoma (RRID:CVCL 8719), SYO-1 synovial sarcoma (RRID:CVCL_7146), MPNST malignant peripheral neural sheath tumor were obtained from the Sloan Kettering Institute. The following established cell lines were purchased from the American Type Culture Collection (ATCC, Manassas, VA), Sor the received from the NCI repository:, PANC-1 pancreatic carcinoma (CRL-1469, RRID:CVCL_0480), OVCAR-5 ovarian carcinoma (RRID:CVCL_1628), OVCAR-8 ovarian carcinoma (RRID:CVCL_1629), , MCF-7 breast carcinoma (CRL-12584, RRID:CVCL_0031), MDA-MB-231 breast carcinoma (CRL-12532, RRID:CVCL_0062), NCI-H1876 small cell lung carcinoma (CRL-5902, RRID:CVCL_1503), NCI-H510A small cell lung carcinoma (HTB-184, RRID:CVCL_1565), NCI-H1417 (CRL-5869, RRID:CVCL_1469), and NCI-H196 small cell lung carcinoma (CRL-5823, RRID:CVCL_1509). Dr. Peter Houghton (Greehey Children's Cancer Research Institute, University of Texas Health Science Center, San Antonio, TX) provided Rh-18 rhabdomyosarcoma (RRID:CVCL_1659). Pooled donor human umbilical vein endothelial cells (HUVEC, Lonza, cat. CC-2519) and human mesenchymal stem cells (hMSC, Lonza, cat. PT-2501) were purchased from Lonza (Walkersville, MD).
Cell Culture. […]
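Further: seven day drug exposure begun three days after spheroid seeding.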
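Wherever viability, T/C is given: 100% = DMSO vehicle wells and lower values mean less viable spheroid.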

With `Cc1nc(N2CCC3(CC2)COC(C)C3N)c(CO)nc1Sc1ccnc(N)c1Cl` (centres undefined) + CCN1C(C(=O)NC23CCC(C(=O)O)(CC2)CC3)C(c2cccc(Cl)c2F)C2(C(=O)Nc3cc(Cl)ccc32)C12CCCCC2 the IC50 (second compound 0.00949 µM) was 0.578 µM, the IC50 (second compound 0.03 µM) was over 3 µM and the IC50 (second compound 0.0949 µM) was over 3 µM. It also gave an IC50 (second compound 0.3 µM) of over 3 µM, an IC50 (second compound 0.949 µM) of over 3 µM and an IC50 (second compound 3 µM) of over 3 µM. The viability, T/C (second compound 0.00949 µM, first compound 0.00949 µM) was 87%, the viability, T/C (second compound 0.00949 µM, first compound 0.03 µM) was 91.7% and the viability, T/C (second compound 0.00949 µM, first compound 0.0949 µM) was 111%. For the same molecule, the viability, T/C (second compound 0.00949 µM, first compound 0.3 µM) was 57.3%, the viability, T/C (second compound 0.00949 µM, first compound 0.949 µM) was 43.6% and the viability, T/C (second compound 0.00949 µM, first compound 3 µM) was 45.3%. It also gave a viability, T/C (second compound 0.03 µM, first compound 0.00949 µM) of 85.3%, a viability, T/C (second compound 0.03 µM, first compound 0.03 µM) of 67% and a viability, T/C (second compound 0.03 µM, first compound 0.0949 µM) of 101%. For the same molecule, the viability, T/C (second compound 0.03 µM, first compound 0.3 µM) was 85.6%, the viability, T/C (second compound 0.03 µM, first compound 0.949 µM) was 96% and the viability, T/C (second compound 0.03 µM, first compound 3 µM) was 63.3%. For the same molecule, the viability, T/C (second compound 0.0949 µM, first compound 0.00949 µM) was 63.2%, the viability, T/C (second compound 0.0949 µM, first compound 0.03 µM) was 110% and the viability, T/C (second compound 0.0949 µM, first compound 0.0949 µM) was 70.5%. It also gave a viability, T/C (second compound 0.0949 µM, first compound 0.3 µM) of 66.6%, a viability, T/C (second compound 0.0949 µM, first compound 0.949 µM) of 73.7% and a viability, T/C (second compound 0.0949 µM, first compound 3 µM) of 57.5%. The viability, T/C (second compound 0.3 µM, first compound 0.00949 µM) was 119%, the viability, T/C (second compound 0.3 µM, first compound 0.03 µM) was 71% and the viability, T/C (second compound 0.3 µM, first compound 0.0949 µM) was 54.5%. It also gave a viability, T/C (second compound 0.3 µM, first compound 0.3 µM) of 80.6%, a viability, T/C (second compound 0.3 µM, first compound 0.949 µM) of 47.6% and a viability, T/C (second compound 0.3 µM, first compound 3 µM) of 52.5%. The viability, T/C (second compound 0.949 µM, first compound 0.00949 µM) was 67.6%, the viability, T/C (second compound 0.949 µM, first compound 0.03 µM) was 66.8% and the viability, T/C (second compound 0.949 µM, first compound 0.0949 µM) was 83.1%. For the same molecule, the viability, T/C (second compound 0.949 µM, first compound 0.3 µM) was 47.4%, the viability, T/C (second compound 0.949 µM, first compound 0.949 µM) was 73.5% and the viability, T/C (second compound 0.949 µM, first compound 3 µM) was 59.2%. For the same molecule, the viability, T/C (second compound 3 µM, first compound 0.00949 µM) was 69.5%, the viability, T/C (second compound 3 µM, first compound 0.03 µM) was 92.5% and the viability, T/C (second compound 3 µM, first compound 0.0949 µM) was 77.2%. For the same molecule, the viability, T/C (second compound 3 µM, first compound 0.3 µM) was 73.5%, the viability, T/C (second compound 3 µM, first compound 0.949 µM) was 67% and the viability, T/C (second compound 3 µM, first compound 3 µM) was 72.5%.

With `CCN1C(C(=O)NC23CCC(C(=O)O)(CC2)CC3)C(c2cccc(Cl)c2F)C2(C(=O)Nc3cc(Cl)ccc32)C12CCCCC2` (centres undefined) + CNC(C)C(=O)NC1CN(S(=O)(=O)c2cccc(S(=O)(=O)N3CCC4CCC(C(=O)NC(c5ccccc5)c5ccccc5)N4C(=O)C(NC(=O)C(C)NC)C3)c2)CCC2CCC(C(=O)NC(c3ccccc3)c3ccccc3)N2C1=O the IC50 (second compound 0.00316 µM) was over 3 µM, the IC50 (second compound 0.01 µM) was over 3 µM and the IC50 (second compound 0.0316 µM) was over 3 µM. It also gave an IC50 (second compound 0.1 µM) of over 3 µM, an IC50 (second compound 0.316 µM) of over 3 µM and an IC50 (second compound 1 µM) of over 3 µM. It also gave a viability, T/C (second compound 0.00316 µM, first compound 0.00949 µM) of 92%, a viability, T/C (second compound 0.00316 µM, first compound 0.03 µM) of 118% and a viability, T/C (second compound 0.00316 µM, first compound 0.0949 µM) of 111%. For the same molecule, the viability, T/C (second compound 0.00316 µM, first compound 0.3 µM) was 83.8%, the viability, T/C (second compound 0.00316 µM, first compound 0.949 µM) was 108% and the viability, T/C (second compound 0.00316 µM, first compound 3 µM) was 65.8%. It also gave a viability, T/C (second compound 0.01 µM, first compound 0.00949 µM) of 101%, a viability, T/C (second compound 0.01 µM, first compound 0.03 µM) of 106% and a viability, T/C (second compound 0.01 µM, first compound 0.0949 µM) of 112%. The viability, T/C (second compound 0.01 µM, first compound 0.3 µM) was 80.1%, the viability, T/C (second compound 0.01 µM, first compound 0.949 µM) was 89.2% and the viability, T/C (second compound 0.01 µM, first compound 3 µM) was 82.6%. The viability, T/C (second compound 0.0316 µM, first compound 0.00949 µM) was 96.4%, the viability, T/C (second compound 0.0316 µM, first compound 0.03 µM) was 73.9% and the viability, T/C (second compound 0.0316 µM, first compound 0.0949 µM) was 122%. The viability, T/C (second compound 0.0316 µM, first compound 0.3 µM) was 94%, the viability, T/C (second compound 0.0316 µM, first compound 0.949 µM) was 83.5% and the viability, T/C (second compound 0.0316 µM, first compound 3 µM) was 82.1%. For the same molecule, the viability, T/C (second compound 0.1 µM, first compound 0.00949 µM) was 94.7%, the viability, T/C (second compound 0.1 µM, first compound 0.03 µM) was 73.8% and the viability, T/C (second compound 0.1 µM, first compound 0.0949 µM) was 82.1%. It also gave a viability, T/C (second compound 0.1 µM, first compound 0.3 µM) of 93.2%, a viability, T/C (second compound 0.1 µM, first compound 0.949 µM) of 80.1% and a viability, T/C (second compound 0.1 µM, first compound 3 µM) of 89.6%. It also gave a viability, T/C (second compound 0.316 µM, first compound 0.00949 µM) of 96%, a viability, T/C (second compound 0.316 µM, first compound 0.03 µM) of 115% and a viability, T/C (second compound 0.316 µM, first compound 0.0949 µM) of 92.8%. It also gave a viability, T/C (second compound 0.316 µM, first compound 0.3 µM) of 79.6%, a viability, T/C (second compound 0.316 µM, first compound 0.949 µM) of 81.3% and a viability, T/C (second compound 0.316 µM, first compound 3 µM) of 105%. It also gave a viability, T/C (second compound 1 µM, first compound 0.00949 µM) of 78.9%, a viability, T/C (second compound 1 µM, first compound 0.03 µM) of 84.7% and a viability, T/C (second compound 1 µM, first compound 0.0949 µM) of 66.1%. It also gave a viability, T/C (second compound 1 µM, first compound 0.3 µM) of 112%, a viability, T/C (second compound 1 µM, first compound 0.949 µM) of 82.2% and a viability, T/C (second compound 1 µM, first compound 3 µM) of 83.1%.
